In patent US12404244B2, “Pan-KIT kinase inhibitor having quinoline structure and application thereof” (Tarapeutics Science Inc., priority 2018, dated 2025):
Like-named read-outs stand apart in the source and are kept apart here.

How the values were obtained:
Type in all cases: cell-based, mouse
BaF3 = assay: Proliferation of parental BaF3 cells (CCK-8); settings: for GI50: Mus musculus, read-out: GI50 BaF3
Source text: (§1) Compounds as provided herein were further evaluated for their inhibitory effects on proliferation of cancer cells by testing their effects on growth of cancer cells. In this example the following cells were used: primary mouse B cells BaF3 (purchased from ATCC), GIST-T1 cells of the human gastrointestinal stromal tumor cell line (expressing wild-type KIT gene) (purchased from Cosmo Bio Co., Ltd. (Japan)). The present lab further constructed and used the following: mouse Tel-Kit-BaF3 (stably expressing KIT wild-type kinase), mouse Tel-Kit/T670I-BaF3 (stably expressing KIT T670I mutant kinase), mouse Tel-Kit/V559A-BaF3 (stably expressing KIT V559A mutant kinase), mouse Tel-Kit/V559D-BaF3 (stably expressing KIT V559D mutant kinase), mouse Tel-Kit/V559G-BaF3 (stably expressing KIT V559G mutant kinase), mouse Tel-Kit/V560D-BaF3 (stably expressing KIT V560D mutant kinase), mouse Tel-Kit/L576P-BaF3 (stably expressing KIT L576P mutant kinase), mouse Tel-Kit/V654A-BaF3 (stably expressing KIT V654A mutant kinase), mouse Tel-Kit/V654A/V559D-BaF3 (stably expressing KIT V654A V559D mutant kinase), mouse Tel-Kit/T670E-BaF3 (stably expressing KIT T670E mutant kinase), mouse Tel-Kit/T670I/V559D-BaF3 (stably expressing KIT T670I V559D mutant kinase), mouse Tel-Kit/S709F-BaF3 (stably expressing KIT S709F mutant kinase), mouse Tel-Kit/D816E-BaF3 (stably expressing KIT D816E mutant kinase), mouse Tel-Kit/D816H-BaF3 (stably expressing KIT D816H mutant kinase), mouse Tel-Kit/D820E-BaF3 (stably expressing KIT D820E mutant kinase), mouse Tel-Kit/D820G-BaF3 (stably expressing KIT D820G mutant kinase), mouse Tel-Kit/D820Y-BaF3 (stably expressing KIT D820Y mutant kinase), mouse Tel-Kit/N822K-BaF3 (stably expressing KIT N822K mutant kinase), mouse Tel-Kit/Y823D-BaF3 (stably expressing KIT Y823D mutant kinase), mouse Tel-Kit/A829P-BaF3 (stably expressing KIT A829P mutant kinase), GIST-T1-T670I cells of the human gastrointestinal stromal tumor cell line (expressing KIT-T670I mutant gene). The above cell lines were constructed by: amplifying respectively the sequences of human KIT and various mutant kinase regions of KIT via PCR, inserting the fragments respectively into MSCV-Puro vectors having a N-terminal TEL fragment and/or a NPM fragment and/or a TPR fragment (purchased from Clontech), transfecting mouse BaF3 cells with the vectors by means of retrovirus to obtain stably transfected cells, removing the growth factor IL-3, and thereby eventually obtaining cell lines that depend on the transferred protein KIT or various mutants of KIT. The GIST-T1-T670I (expressing C-KIT-T670I mutant gene) cell line was constructed by our laboratory as follows: designing sgRNA that targeted a region around T670 of the KIT gene with CRISPR Design Tool (website: crispr.mit.edu, Zhang Feng Lab), cloning it into pSpCas9(BB)-2A-Puro vector; co-transfecting cells with the resultant vector and a single-stranded oligonucleotide having T670I site mutation that is near to T670, subjecting the resultant to antibiotics screening, followed by dilution, and monocellular culture in a 96-well plate; validating the site T670 of the cells by sequence detection via Sanger sequencing.
(§2) The cells after incubation were detected using CCK-8 (purchased from MedChem Express, Shanghai, China) cell viability assay kit (CCK-8 may be reduced by dehydrogenase in living cells to a highly water-soluble yellow formazan product, and the amount of the resultant formazan is proportional to the number of living cells), the number of living cells were quantified with a microplate reader, and GI50 of the compounds and the control compounds were calculated (the results shown in Table 2 and Table 3).

[1] = tested on: TEL-KIT-BaF3 (stably expressing KIT wild-type kinase); assay: Proliferation of TEL-KIT-BaF3 cells (CCK-8); settings: for GI50: Mus musculus, read-out: GI50 TEL-KIT-BaF3
Source text: as §1, §2

TEL-KIT/T670I-BaF3 = assay: Proliferation of TEL-KIT/T670I-BaF3 cells (CCK-8); settings: for GI50: Mus musculus, read-out: GI50 TEL-KIT/T670I-BaF3
Source text: as §1

[2] = BaF3 parent cells, 72 hours, CCK-8

| Structure (SMILES) | GI50 (BaF3; BaF3, 72 h) | inhibitory effect against wild-type KIT [1] | GI50 ([1]; 72 h) | inhibitory effect against mutant KIT-T670I (TEL-KIT/T670I-BaF3) | GI50 (TEL-KIT/T670I-BaF3; 72 h) | GI50 (BaF3; [2]) | GI50 ([1]; KIT wild-type, 72 hours, CCK-8) | GI50 (TEL-KIT/T670I-BaF3; 72 hours, CCK-8) | selectivity against BaF3 (BaF3; KIT and KIT-T670I relative to parent BaF3 cells) |
| --- | --- | --- | --- | --- | --- | --- | --- | --- | --- |
| COc1cc2nccc(Oc3ccc(NC(=O)Cc4ccccc4)cn3)c2cc1OC [Comparative Example 1, N-(6-((6,7-dimethoxyquinolin-4-yl)oxy)pyridin-3-yl)-2-phenylacetamide, reference compound] | > 10 µM | no significant inhibitory effects | > 10000 nM | no significant inhibitory effects | > 10000 nM |  |  |  |  |
| COc1cc2nccc(Oc3ccc(C(=O)NCc4cccc(C(F)(F)F)c4)cc3)c2cc1OC [Comparative Example 3, N-(3-(trifluoromethyl)benzyl)-4-((6,7-dimethoxyquinolin-4-yl)oxy)benzamide, reference compound] |  | substantially vanished |  | substantially vanished |  | ≥ 10 µM | 2350 nM | 4610 nM |  |
| COc1cccc(CC(=O)Nc2ccc(Oc3ncnc4cc(OC)c(OC)cc34)cc2)c1 [Comparative Example 4, N-(4-((6,7-dimethoxyquinazolin-4-yl)oxy)phenyl)-2-(3-methoxyphenyl)acetamide, reference compound] |  | certain inhibitory activity but lower than that of the present invention compounds |  | certain inhibitory activity but lower than that of the present invention compounds |  | 3.12 µM | 183 nM | 844 nM | weaker selectivity against BaF3 |
| COc1cc2nccc(Oc3ccc(NC(=O)Cc4cccc(C(F)(F)F)c4)cc3)c2cc1OC [Example 8, N-(4-((6,7-dimethoxyquinolin-4-yl)oxy)phenyl)-2-(3-(trifluoromethyl)phenyl)acetamide] | 1.89 µM |  | 20 nM |  | 1 nM |  |  |  |  |
| COc1cc2nccc(Oc3ccc(NC(=O)Cc4ccc(C(F)(F)F)cc4)cc3)c2cc1OC [Example 9, N-(4-((6,7-dimethoxyquinolin-4-yl)oxy)phenyl)-2-(4-(trifluoromethyl)phenyl)acetamide] | 2.16 µM |  | 22 nM |  | 11 nM |  |  |  |  |
| COc1cc2nccc(Oc3ccc(NC(=O)Cc4ccc(C)c(C)c4)cc3)c2cc1OC [Example 11, N-(4-((6,7-dimethoxyquinolin-4-yl)oxy)phenyl)-2-(3,4-dimethylphenyl)acetamide] | 6.42 µM |  | 27 nM |  | 15 nM |  |  |  |  |
| COc1cc2nccc(Oc3ccc(NC(=O)Cc4ccc(F)c(C(F)(F)F)c4)cc3)c2cc1OC [Example 13, N-(4-((6,7-dimethoxyquinolin-4-yl)oxy)phenyl)-2-(4-fluoro-3-(trifluoromethyl)phenyl)acetamide] | 1.03 µM |  | 24 nM |  | 13 nM |  |  |  |  |
| COc1cc2nccc(Oc3ccc(NC(=O)Cc4ccc(Cl)c(C(F)(F)F)c4)c(F)c3)c2cc1OC [Example 24, N-(2-fluoro-4-((6,7-dimethoxyquinolin-4-yl)oxy)phenyl)-2-(4-chloro-3-(trifluoromethyl)phenyl)acetamide] | 3.21 µM |  | 49 nM |  | 18 nM |  |  |  |  |
| COc1cc2nccc(Oc3ccc(NC(=O)NCCCc4ccccc4)cc3)c2cc1OC [Example 30, 1-(4-((6,7-dimethoxyquinolin-4-yl)oxy)phenyl)-3-(3-phenylpropyl)urea] |  |  |  |  |  | 2.91 µM | 110 nM | 10 nM |  |
| COc1cc2nccc(Oc3ccc(NC(=O)NCCCc4cccc(F)c4)cc3)c2cc1OC [Example 31, 1-(4-((6,7-dimethoxyquinolin-4-yl)oxy)phenyl)-3-(3-(3-fluorophenyl)propyl)urea] |  |  |  |  |  | 2.48 µM | 97 nM | 16 nM |  |
| COc1cc2nccc(Oc3ccc(NC(=O)NCCCc4ccc(F)cc4)cc3)c2cc1OC [Example 32, 1-(4-((6,7-dimethoxyquinolin-4-yl)oxy)phenyl)-3-(3-(4-fluorophenyl)propyl)urea] |  |  |  |  |  | 3.85 µM | 68 nM | 15 nM |  |
| COc1cc2nccc(Oc3ccc(NC(=O)Cc4ccc(Cl)c(C(F)(F)F)c4)cc3Cl)c2cc1OC [Example 38, N-(3-chloro-4-((6,7-dimethoxyquinolin-4-yl)oxy)phenyl)-2-(4-chloro-3-(trifluoromethyl)phenyl)acetamide] | 9.45 µM |  | 78 nM |  | 56 nM |  |  |  |  |
